Assay results: patent publication US9872873B2, “Process for preparing stable pharmaceutical compositions of compounds susceptible to hydrolysis” (Fresenius Kabi Oncology Limited, priority 2012, dated 2018)

What was measured:
[1] = cited from earlier work
[2] = Solution stability of Decitabine bulk solution in Water:Acetonitrile 80:20% v/v at −5 ± 2° C.; assay type: physicochemical
[3] = Stability profile of Decitabine pre-lyophilized bulk solution at 25° C. in water; assay type: physicochemical
Procedure: The manufacture of a freeze dried product necessitates that the product is usually first manufactured as a solution, filtered to sterilize, aseptically filled, and finally lyophilized to remove the solvents. All of these unit operations require that the product be held in the solution state for a defined period of time, at least for 4 hours. A batch of Decitabine bulk solution was prepared by dissolving the drug (5 mg/mL) and buffer (Potassium dihydrogen phosphate 6.8 mg/mL, sodium hydroxide 1.16 mg/mL) in water and at room temperature.

[4] = Stability profile of Decitabine pre-lyophilized bulk solution at −1° C. in water; assay type: physicochemical
[5] = Freezing point of bulk solution of Decitabine using various solvents and buffers; assay type: physicochemical
Excerpt: The advantages of using these non-aqueous solvent systems include: increased drug wetting or solubility, increased sublimation rates, increased pre-dried bulk solution or dried product stability, decreased reconstitution time, and enhancement of sterility assurance of the pre-dried bulk solution. A pre-requisite for such a solvent to be utilized efficiently for depression of freezing point of water would be to have satisfactory drug solubility in solvent system. […] Various solvents were evaluated for intended purpose e.g. Dimethylsulfoxide (1-30%), Ethanol (1-30%), Tertiary-butanol (1-30%), and their combinations were used in the range of 1-30% and thus were evaluated for their effect in decreasing the freezing point of bulk solution as summarized in Table VII. Although Ethanol decreased the freezing point of the drug solution and ensured drug solubility at low temperature, it was not suitable as a solvent for lyophilization as lyophilized cake could not be formed using this solvent system. Dimethyl sulphoxide is not suitable solvent for Lyophilization as it is difficult to remove during lyophilization.

[6] = Initial (5 minutes after drug dissolution)

SMILES: Nc1ncn([C@H]2C[C@H](O)[C@@H](CO)O2)c(=O)n1 [Decitabine, 5-aza-2′ deoxycytidine]
- Maximum storage time of diluted solution until administration ([1]; prepared with cold (2° C.-8° C.) infusion fluids, stored at 2° C.-8° C.): ≤ 7 h
- Time of use after reconstitution without cold infusion fluids ([1]; reconstituted with Sterile Water for Injection): ≤ 15 min
- Related Substances: 5-Azacytosine ([2]; 4 hrs): 0.02%
- Related Substances: H-unk (Highest Unknown Impurity) ([2]; 4 hrs): 0.03%
- Related Substances: SP4 ([2]; 4 hrs): 0.28%
- Related Substances: SP6 ([2]; 4 hrs): 0.29%
- Related Substances: Total ([2]; 4 hrs): 0.67%
- Related Substances: 5-Azacytosine ([2]; Initial): 0.01%
- Related Substances: H-unk (Highest Unknown Impurity) ([2]; Initial): 0.03%
- Related Substances: SP4 ([2]; Initial): 0.04%
- Related Substances: SP6 ([2]; Initial): 0.05%
- Related Substances: Total ([2]; Initial): 0.17%
- Related Substances: 5-Azacytosine ([3]; 2 h): 0.05%
- Related Substances: H-unk (Highest Unknown Impurity) ([3]; 2 h): 12.42%
- Related Substances: Six member Decitabine ([3]; 2 h): 0.34%
- Related Substances: Total ([3]; 2 h): 25.44%
- Related Substances: α-Decitabine ([3]; 2 h): 0.00%
- Related Substances: 5-Azacytosine ([3]; 4 h): 0.05%
- Related Substances: H-unk (Highest Unknown Impurity) ([3]; 4 h): 14.14%
- Related Substances: Six member Decitabine ([3]; 4 h): 0.81%
- Related Substances: Total ([3]; 4 h): 31.46%
- Related Substances: α-Decitabine ([3]; 4 h): 0.00%
- Related Substances: 5-Azacytosine [3, 6]: 0.00%
- Related Substances: H-unk (Highest Unknown Impurity) [3, 6]: 10.89%
- Related Substances: Six member Decitabine [3, 6]: 0.05%
- Related Substances: Total [3, 6]: 12.12%
- Related Substances: α-Decitabine [3, 6]: 0.00%
- Related Substances: 5-Azacytosine ([4]; 1 hr): 0.03%
- Related Substances: H-unk (Highest Unknown Impurity) ([4]; 1 hr): 0.05%
- Related Substances: SP1 ([4]; 1 hr): 0.03%
- Related Substances: SP2 ([4]; 1 hr): 0.01%
- Related Substances: SP3 ([4]; 1 hr): 0.06%
- Related Substances: SP4 ([4]; 1 hr): 0.85%
- Related Substances: SP6 ([4]; 1 hr): 0.07%
- Related Substances: Total ([4]; 1 hr): 1.25%
- Related Substances: α-Decitabine ([4]; 1 hr): 0.02%
- Related Substances: 5-Azacytosine ([4]; 2 hr): 0.04%
- Related Substances: H-unk (Highest Unknown Impurity) ([4]; 2 hr): 0.05%
- Related Substances: SP1 ([4]; 2 hr): 0.03%
- Related Substances: SP2 ([4]; 2 hr): 0.02%
- Related Substances: SP3 ([4]; 2 hr): 0.05%
- Related Substances: SP4 ([4]; 2 hr): 1.50%
- Related Substances: SP6 ([4]; 2 hr): 0.22%
- Related Substances: Total ([4]; 2 hr): 2.06%
- Related Substances: α-Decitabine ([4]; 2 hr): 0.02%
- Related Substances: 5-Azacytosine ([4]; 3 hr): 0.03%
- Related Substances: H-unk (Highest Unknown Impurity) ([4]; 3 hr): 0.05%
- Related Substances: SP1 ([4]; 3 hr): 0.03%
- Related Substances: SP2 ([4]; 3 hr): 0.02%
- Related Substances: SP3 ([4]; 3 hr): 0.05%
- Related Substances: SP4 ([4]; 3 hr): 2.13%
- Related Substances: SP6 ([4]; 3 hr): 0.21%
- Related Substances: Total ([4]; 3 hr): 2.68%
- Related Substances: α-Decitabine ([4]; 3 hr): 0.02%
- Related Substances: 5-Azacytosine ([4]; 4 hr): 0.03%
- Related Substances: H-unk (Highest Unknown Impurity) ([4]; 4 hr): 0.05%
- Related Substances: SP1 ([4]; 4 hr): 0.03%
- Related Substances: SP2 ([4]; 4 hr): 0.04%
- Related Substances: SP3 ([4]; 4 hr): 0.05%
- Related Substances: SP4 ([4]; 4 hr): 1.71%
- Related Substances: SP6 ([4]; 4 hr): 0.95%
- Related Substances: Total ([4]; 4 hr): 3.07%
- Related Substances: α-Decitabine ([4]; 4 hr): 0.01%
- Related Substances: 5-Azacytosine ([4]; Initial): 0.03%
- Related Substances: H-unk (Highest Unknown Impurity) ([4]; Initial): 0.05%
- Related Substances: SP1 ([4]; Initial): 0.03%
- Related Substances: SP2 ([4]; Initial): 0.01%
- Related Substances: SP3 ([4]; Initial): 0.06%
- Related Substances: SP4 ([4]; Initial): 0.35%
- Related Substances: SP6 ([4]; Initial): 0.04%
- Related Substances: Total ([4]; Initial): 0.70%
- Freezing Point of bulk solution ([5]; 5% DMSO + 10% Ethanol + 20% Tertiary-butanol + buffer): −8 to −10 °C
- Freezing Point of bulk solution ([5]; 5% DMSO +10% Ethanol + buffer): −5 °C
- Freezing Point of bulk solution ([5]; 5% DMSO + 15% Ethanol + buffer): −6 to −9 °C
- Freezing Point of bulk solution ([5]; Acetonitrile 5%): −2 to −3 °C
- Freezing Point of bulk solution ([5]; Acetonitrile 10%): −3 to −4 °C
- Freezing Point of bulk solution ([5]; Acetonitrile 15%): −4 to −6 °C
- Freezing Point of bulk solution ([5]; Acetonitrile 20%): −8 °C
- Freezing Point of bulk solution ([5]; DMSO 1%): −0.5 °C
- Freezing Point of bulk solution ([5]; DMSO 2%): −0.8 °C
- Freezing Point of bulk solution ([5]; DMSO 5%): −1.6 °C
- Freezing Point of bulk solution ([5]; DMSO 10%): −3.0 °C
- Freezing Point of bulk solution ([5]; DMSO 15%): −5.5 °C
- Freezing Point of bulk solution ([5]; DMSO 20%): −13.9 °C
- Freezing Point of bulk solution ([5]; DMSO 30%): −16.0 °C
- Freezing Point of bulk solution ([5]; Ethanol 1%): −0.5 °C
- Freezing Point of bulk solution ([5]; Ethanol 2%): −0.7 °C
- Freezing Point of bulk solution ([5]; Ethanol 5%): −2.0 °C
- Freezing Point of bulk solution ([5]; Ethanol 10%): −2.5 °C
- Freezing Point of bulk solution ([5]; Ethanol 15%): −6.1 °C
- Freezing Point of bulk solution ([5]; Ethanol 20%): −13.8 °C
- Freezing Point of bulk solution ([5]; Ethanol 30%): −14.3 °C
- Freezing Point of bulk solution ([5]; Tertiary-butanol 1%): −0.1 °C
- Freezing Point of bulk solution ([5]; Tertiary-butanol 2%): −1.0 °C
- Freezing Point of bulk solution ([5]; Tertiary-butanol 5%): −2.5 °C
- Freezing Point of bulk solution ([5]; Tertiary-butanol 10%): −4.3 °C
- Freezing Point of bulk solution ([5]; Tertiary-butanol 15%): −6.0 °C
- Freezing Point of bulk solution ([5]; Tertiary-butanol 20%): −9.3 °C
- Freezing Point of bulk solution ([5]; Tertiary-butanol 30%): −12.9 °C
- Freezing Point of bulk solution ([5]; n-butanol): Restricted Miscibility
